Assays:
recombinant LRRK2 kinase = target: T1, recombinant LRRK2 kinase (Homo sapiens, UniProt Q5S007); assay: LRRK2 kinase inhibition (Kinase-Glo luminescence); assay type: biochemical; details: IC50 grade; 25 μmol/L ATP, LRRKtide, 30° C. 2 hours; read-out: Enzyme activity LRRK2
T1 construct: purchased Signal Chem, Richmond, BC, Canada
Procedure: Upon completion of the reaction, an equal amount of Kinase-Glo (Promega, Madison, Wis.) solution was added thereto, followed by reaction for 40 minutes. A detection solution was added thereto, followed by further reaction at room temperature for 30 minutes. Then, IC50 of kinase was calculated by measuring the amount of luciferase using a microplate ELISA reader (Bio-Tek).

[1] = target: T2, kinases of the scanMAX Kinase assay panel (Homo sapiens, UniProt P08581, M1250T); assay: Kinase selectivity, DiscoverX scanMAX Kinase assay panel (% control); assay type: binding; details: MET(M1250T); 1 uM
T2 construct: purchased DiscoverX Co. (contract measurement) scanMAX Kinase assay panel
T2 sequence (P08581 25-1390 M1250T): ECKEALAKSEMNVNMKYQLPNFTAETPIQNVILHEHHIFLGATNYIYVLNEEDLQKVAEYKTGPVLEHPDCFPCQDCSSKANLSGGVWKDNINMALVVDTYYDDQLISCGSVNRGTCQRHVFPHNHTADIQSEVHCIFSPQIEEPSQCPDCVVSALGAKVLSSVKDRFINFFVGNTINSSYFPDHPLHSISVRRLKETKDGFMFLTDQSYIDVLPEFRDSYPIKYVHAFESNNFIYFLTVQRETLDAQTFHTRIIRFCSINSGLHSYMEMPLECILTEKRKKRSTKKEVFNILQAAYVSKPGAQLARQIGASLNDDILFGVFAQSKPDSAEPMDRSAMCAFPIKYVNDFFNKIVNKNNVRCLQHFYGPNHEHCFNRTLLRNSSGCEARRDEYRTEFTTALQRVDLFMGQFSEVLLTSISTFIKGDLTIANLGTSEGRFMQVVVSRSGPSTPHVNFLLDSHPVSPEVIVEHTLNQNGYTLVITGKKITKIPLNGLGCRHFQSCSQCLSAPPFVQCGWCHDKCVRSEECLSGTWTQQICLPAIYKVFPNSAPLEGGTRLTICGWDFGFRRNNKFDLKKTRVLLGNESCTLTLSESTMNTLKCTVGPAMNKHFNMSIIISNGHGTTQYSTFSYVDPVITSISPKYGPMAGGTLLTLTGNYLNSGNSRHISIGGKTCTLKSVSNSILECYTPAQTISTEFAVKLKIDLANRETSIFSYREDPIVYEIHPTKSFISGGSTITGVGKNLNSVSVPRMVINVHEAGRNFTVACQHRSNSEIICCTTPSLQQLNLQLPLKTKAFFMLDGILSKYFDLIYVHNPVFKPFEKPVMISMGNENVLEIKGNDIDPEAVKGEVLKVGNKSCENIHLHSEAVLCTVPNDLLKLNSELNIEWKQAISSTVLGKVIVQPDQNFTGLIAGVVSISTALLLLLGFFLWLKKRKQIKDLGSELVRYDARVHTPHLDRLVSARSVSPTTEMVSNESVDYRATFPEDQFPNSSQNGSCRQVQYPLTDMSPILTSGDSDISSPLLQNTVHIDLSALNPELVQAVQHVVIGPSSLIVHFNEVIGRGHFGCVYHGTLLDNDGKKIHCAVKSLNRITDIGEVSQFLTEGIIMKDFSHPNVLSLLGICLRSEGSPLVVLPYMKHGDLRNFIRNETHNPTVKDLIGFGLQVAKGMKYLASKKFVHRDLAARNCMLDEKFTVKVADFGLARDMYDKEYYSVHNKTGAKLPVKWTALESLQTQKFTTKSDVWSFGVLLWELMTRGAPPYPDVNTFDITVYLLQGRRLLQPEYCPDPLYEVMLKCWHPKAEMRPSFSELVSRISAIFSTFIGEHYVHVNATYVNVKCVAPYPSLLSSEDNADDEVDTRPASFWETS
Procedure: (§1) The following experiment was performed to evaluate the activity of the compounds of the present invention to inhibit many enzymes.
(§2) Particularly, the compounds of Examples 8, 64 and 104 were selected among all of those compounds of the invention. DiscoverX Co. was asked to measure the enzyme (kinase) selectivity, and the experiment was performed using scanMAX™ Kinase assay panel.
(§3) Wherein, the concentration of the drug treated to each enzyme was 1 uM in DMSO and the control percentage (% control) was determined by the following Equation 1. (example compound−positive control)/(negative control−positive control)×100 [Equation 1]
(§4) Herein, the positive control indicates the compound showing the % control of 0%, and the negative control indicates DMSO showing the % control of 100%. The enzyme selectivity in the present invention is defined as follows: When the % control for each enzyme is less than 35% (<35%), it is judged that the compound has the activity to the corresponding enzyme.

[2] = target: T3, kinases of the scanMAX Kinase assay panel (Homo sapiens, UniProt P22607, G697C); assay: as above; assay type: binding; details: FGFR3(G697C); 1 uM
T3 construct: purchased DiscoverX Co. (contract measurement) scanMAX Kinase assay panel
Procedure: as §1, §2, §3, §4

[3] = target: T4, kinases of the scanMAX Kinase assay panel (Homo sapiens, UniProt P42680); assay: as above; assay type: binding; details: kinase TEC; 1 uM in DMSO
T4 construct: purchased DiscoverX Co. (contract measurement) scanMAX Kinase assay panel
T4 sequence (P42680 1-631): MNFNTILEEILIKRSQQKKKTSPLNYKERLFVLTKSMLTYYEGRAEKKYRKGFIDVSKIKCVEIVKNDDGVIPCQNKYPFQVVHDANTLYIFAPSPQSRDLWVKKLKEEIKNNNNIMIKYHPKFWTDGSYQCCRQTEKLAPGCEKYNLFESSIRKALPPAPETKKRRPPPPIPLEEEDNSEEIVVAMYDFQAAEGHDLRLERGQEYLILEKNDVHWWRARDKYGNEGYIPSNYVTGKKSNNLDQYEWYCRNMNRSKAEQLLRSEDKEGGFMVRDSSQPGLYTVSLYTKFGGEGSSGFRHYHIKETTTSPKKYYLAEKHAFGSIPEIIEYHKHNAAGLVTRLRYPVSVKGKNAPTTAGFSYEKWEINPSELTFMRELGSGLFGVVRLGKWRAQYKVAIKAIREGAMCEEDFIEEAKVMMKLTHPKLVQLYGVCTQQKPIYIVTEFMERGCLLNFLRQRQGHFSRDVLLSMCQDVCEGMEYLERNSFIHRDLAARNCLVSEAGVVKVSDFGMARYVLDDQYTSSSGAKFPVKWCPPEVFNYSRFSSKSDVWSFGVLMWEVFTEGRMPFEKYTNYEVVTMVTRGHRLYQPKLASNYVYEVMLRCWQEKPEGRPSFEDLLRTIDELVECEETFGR
Procedure: as §1, §2, §3, §4

[4] = target: T5, kinases of the scanMAX Kinase assay panel (Homo sapiens, UniProt P68400); assay: as above; assay type: binding; details: CSNK2A1; 1 uM
T5 construct: purchased DiscoverX Co. (contract measurement) scanMAX Kinase assay panel
T5 sequence (P68400 whole entry): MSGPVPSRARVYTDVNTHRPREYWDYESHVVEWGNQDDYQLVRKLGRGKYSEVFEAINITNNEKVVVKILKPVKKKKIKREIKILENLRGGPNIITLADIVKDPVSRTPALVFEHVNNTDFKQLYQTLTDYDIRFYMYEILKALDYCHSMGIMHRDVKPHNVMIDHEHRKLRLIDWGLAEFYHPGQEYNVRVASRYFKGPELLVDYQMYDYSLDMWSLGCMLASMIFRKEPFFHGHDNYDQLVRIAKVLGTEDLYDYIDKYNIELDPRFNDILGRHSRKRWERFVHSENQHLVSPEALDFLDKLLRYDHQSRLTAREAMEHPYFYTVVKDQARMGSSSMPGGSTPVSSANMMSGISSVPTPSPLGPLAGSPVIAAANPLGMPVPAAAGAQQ
Procedure: as §1, §2, §3, §4

[5] = target: T6, kinases of the scanMAX Kinase assay panel (Homo sapiens, UniProt Q15746); assay: as above; assay type: binding; details: MYLK; 1 uM
T6 construct: purchased DiscoverX Co. (contract measurement) scanMAX Kinase assay panel
T6 sequence (Q15746 whole entry): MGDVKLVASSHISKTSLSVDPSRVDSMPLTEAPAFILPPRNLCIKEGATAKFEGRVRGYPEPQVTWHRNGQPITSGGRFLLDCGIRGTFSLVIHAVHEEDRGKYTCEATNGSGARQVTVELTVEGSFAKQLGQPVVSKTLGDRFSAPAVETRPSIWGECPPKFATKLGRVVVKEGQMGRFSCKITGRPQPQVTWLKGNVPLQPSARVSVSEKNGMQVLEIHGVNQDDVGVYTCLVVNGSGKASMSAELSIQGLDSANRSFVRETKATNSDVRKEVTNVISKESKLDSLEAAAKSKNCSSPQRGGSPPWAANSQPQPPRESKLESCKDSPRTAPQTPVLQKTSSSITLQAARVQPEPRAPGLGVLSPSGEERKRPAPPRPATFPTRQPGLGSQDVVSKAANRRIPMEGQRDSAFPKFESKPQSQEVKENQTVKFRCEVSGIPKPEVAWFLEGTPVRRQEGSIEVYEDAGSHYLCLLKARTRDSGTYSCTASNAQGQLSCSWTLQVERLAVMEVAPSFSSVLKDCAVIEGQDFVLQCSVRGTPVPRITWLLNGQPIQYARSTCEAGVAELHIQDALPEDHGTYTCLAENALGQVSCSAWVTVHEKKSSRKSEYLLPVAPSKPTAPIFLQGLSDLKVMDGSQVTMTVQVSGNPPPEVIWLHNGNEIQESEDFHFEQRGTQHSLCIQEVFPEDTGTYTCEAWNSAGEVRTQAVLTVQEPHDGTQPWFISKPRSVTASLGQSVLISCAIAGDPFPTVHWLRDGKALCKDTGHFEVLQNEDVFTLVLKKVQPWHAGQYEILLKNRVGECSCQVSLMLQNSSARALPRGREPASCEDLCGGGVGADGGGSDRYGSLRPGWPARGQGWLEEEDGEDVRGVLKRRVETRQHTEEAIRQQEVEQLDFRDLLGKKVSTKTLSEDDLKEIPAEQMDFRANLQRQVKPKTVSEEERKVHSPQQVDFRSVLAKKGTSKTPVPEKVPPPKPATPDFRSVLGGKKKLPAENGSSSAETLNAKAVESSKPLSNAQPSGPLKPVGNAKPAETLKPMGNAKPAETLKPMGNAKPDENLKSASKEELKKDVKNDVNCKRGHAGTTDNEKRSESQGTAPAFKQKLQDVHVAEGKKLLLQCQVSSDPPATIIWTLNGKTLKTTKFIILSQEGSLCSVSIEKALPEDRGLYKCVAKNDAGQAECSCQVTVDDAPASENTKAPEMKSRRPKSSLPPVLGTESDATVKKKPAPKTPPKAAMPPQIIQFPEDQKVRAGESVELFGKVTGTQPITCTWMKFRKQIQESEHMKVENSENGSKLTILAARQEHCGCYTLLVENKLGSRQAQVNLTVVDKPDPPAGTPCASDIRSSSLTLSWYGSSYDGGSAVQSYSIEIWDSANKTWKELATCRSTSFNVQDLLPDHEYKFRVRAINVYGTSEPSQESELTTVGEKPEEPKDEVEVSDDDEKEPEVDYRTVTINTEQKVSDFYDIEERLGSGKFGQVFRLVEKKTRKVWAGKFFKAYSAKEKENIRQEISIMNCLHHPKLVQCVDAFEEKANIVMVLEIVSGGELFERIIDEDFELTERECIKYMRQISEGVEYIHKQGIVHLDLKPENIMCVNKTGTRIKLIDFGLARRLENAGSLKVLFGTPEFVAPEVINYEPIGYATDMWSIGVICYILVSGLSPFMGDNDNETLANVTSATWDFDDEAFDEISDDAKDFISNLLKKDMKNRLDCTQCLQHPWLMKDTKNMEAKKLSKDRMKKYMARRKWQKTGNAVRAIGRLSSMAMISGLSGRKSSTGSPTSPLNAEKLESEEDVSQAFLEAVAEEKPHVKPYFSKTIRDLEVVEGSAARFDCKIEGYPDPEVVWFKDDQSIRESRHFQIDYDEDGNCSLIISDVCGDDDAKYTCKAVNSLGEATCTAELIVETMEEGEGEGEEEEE
Procedure: as §1, §2, §3, §4

[6] = target: T7, kinases of the scanMAX Kinase assay panel (Homo sapiens, UniProt Q7KZI7); assay: as above; assay type: binding; details: MARK2; 1 uM
T7 construct: purchased DiscoverX Co. (contract measurement) scanMAX Kinase assay panel
T7 sequence (Q7KZI7 whole entry): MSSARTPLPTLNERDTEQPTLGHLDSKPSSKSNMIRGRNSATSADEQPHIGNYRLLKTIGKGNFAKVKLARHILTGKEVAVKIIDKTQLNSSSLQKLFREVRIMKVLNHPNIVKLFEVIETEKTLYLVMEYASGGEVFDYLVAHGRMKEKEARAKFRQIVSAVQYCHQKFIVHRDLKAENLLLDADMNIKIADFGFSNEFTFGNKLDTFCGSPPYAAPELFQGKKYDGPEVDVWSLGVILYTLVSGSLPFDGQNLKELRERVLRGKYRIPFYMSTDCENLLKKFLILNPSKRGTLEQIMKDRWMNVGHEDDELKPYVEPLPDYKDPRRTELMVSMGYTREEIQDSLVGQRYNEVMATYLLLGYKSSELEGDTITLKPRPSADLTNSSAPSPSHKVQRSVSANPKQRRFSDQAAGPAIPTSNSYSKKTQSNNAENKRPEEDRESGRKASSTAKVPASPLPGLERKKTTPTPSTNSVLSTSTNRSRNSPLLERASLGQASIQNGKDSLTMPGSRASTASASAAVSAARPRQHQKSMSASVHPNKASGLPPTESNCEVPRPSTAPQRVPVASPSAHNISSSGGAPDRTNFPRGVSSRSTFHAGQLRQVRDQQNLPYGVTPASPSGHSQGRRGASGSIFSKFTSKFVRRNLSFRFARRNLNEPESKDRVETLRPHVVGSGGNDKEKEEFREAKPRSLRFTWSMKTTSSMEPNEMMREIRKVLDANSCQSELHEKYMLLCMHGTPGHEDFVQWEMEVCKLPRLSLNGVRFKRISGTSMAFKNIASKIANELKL
Procedure: as §1, §2, §3, §4

[7] = target: T8, kinases of the scanMAX Kinase assay panel (Homo sapiens, UniProt Q9NWZ3); assay: as above; assay type: binding; details: IRAK4; 1 uM
T8 construct: purchased DiscoverX Co. (contract measurement) scanMAX Kinase assay panel
T8 sequence (Q9NWZ3 1-460): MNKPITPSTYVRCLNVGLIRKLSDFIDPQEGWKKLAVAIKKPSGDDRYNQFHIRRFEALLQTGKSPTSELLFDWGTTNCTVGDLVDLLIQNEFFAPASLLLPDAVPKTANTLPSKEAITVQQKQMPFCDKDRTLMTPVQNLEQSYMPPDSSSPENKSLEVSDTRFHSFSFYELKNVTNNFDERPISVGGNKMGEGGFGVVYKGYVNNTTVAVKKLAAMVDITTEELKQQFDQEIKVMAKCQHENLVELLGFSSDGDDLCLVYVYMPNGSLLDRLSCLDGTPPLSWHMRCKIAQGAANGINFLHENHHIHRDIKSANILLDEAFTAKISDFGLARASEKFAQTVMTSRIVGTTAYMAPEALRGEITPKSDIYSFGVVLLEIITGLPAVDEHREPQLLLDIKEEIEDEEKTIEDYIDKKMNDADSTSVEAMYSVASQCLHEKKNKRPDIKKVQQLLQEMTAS
Procedure: as §1, §2, §3, §4

[8] = target: T9, kinases of the scanMAX Kinase assay panel (Homo sapiens, UniProt Q9Y463); assay: as above; assay type: binding; details: DYRK1B; 1 uM
T9 construct: purchased DiscoverX Co. (contract measurement) scanMAX Kinase assay panel
T9 sequence (Q9Y463 whole entry): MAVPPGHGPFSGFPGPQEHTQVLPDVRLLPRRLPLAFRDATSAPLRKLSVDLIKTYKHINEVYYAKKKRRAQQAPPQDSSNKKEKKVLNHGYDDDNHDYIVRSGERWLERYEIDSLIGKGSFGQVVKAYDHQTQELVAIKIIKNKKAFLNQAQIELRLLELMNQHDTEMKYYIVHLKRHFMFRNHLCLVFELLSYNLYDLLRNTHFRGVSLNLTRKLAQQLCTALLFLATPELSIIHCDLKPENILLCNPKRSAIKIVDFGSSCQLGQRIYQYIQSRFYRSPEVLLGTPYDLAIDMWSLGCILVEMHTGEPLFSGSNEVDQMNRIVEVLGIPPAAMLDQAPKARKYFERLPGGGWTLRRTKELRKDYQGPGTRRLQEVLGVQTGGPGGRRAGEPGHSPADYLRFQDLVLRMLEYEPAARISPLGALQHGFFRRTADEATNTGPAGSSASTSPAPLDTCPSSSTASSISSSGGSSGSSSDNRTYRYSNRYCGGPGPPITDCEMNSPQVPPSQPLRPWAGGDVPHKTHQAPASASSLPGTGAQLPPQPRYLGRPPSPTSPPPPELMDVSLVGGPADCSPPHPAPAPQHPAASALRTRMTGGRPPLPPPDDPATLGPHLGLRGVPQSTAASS
Procedure: as §1, §2, §3, §4

[9] = target: T10, kinases of the scanMAX Kinase assay panel (Homo sapiens, UniProt Q9Y6M4); assay: as above; assay type: binding; details: CSNK1G3; 1 uM
T10 construct: purchased DiscoverX Co. (contract measurement) scanMAX Kinase assay panel
Procedure: as §1, §2, §3, §4

Work on CC1(Nc2nc(Nc3cnn([C@H]4CCN(C5COC5)C[C@@H]4F)c3Cl)nc3[nH]cc(C#N)c23)CC1 [Example 52, 2-((5-chloro-1-((3S,4S)-3-fluoro-1-(oxetane-3-yl)piperidine-4-yl)-1H-pyrazole-4-yl)amino)((1-methylcyclopropyl)amino)-7H-pyrrolo[2,3-d]pyrimidine-5-carbonitrile] yielded an IC50 (recombinant LRRK2 kinase) of under 0.01 µM, a remaining binding at 1 µM [1] of 28% and a remaining binding at 1 µM [2] of 11%. For the same molecule, the remaining binding at 1 µM [3] was 24%, the remaining binding at 1 µM [4] was 24% and the remaining binding at 1 µM [5] was 0.55%. For the same molecule, the remaining binding at 1 µM [6] was 9.5%, the remaining binding at 1 µM [7] was 0.2% and the remaining binding at 1 µM [8] was 0.55%. The remaining binding at 1 µM [9] was 0.15%.

With CNc1nc(Nc2ccc(C(=O)N3CCOCC3)cc2OC)nc2[nH]cc(C#N)c12 [Example 1, 2-((2-methoxy-4-(morpholine-4-carbonyl)phenyl)amino)-4-(methylamino)-7H-pyrrolo[2,3-d]pyrimidine-5-carbonitrile] the IC50 (recombinant LRRK2 kinase) was under 0.01 µM, the remaining binding at 1 µM [1] was 100% and the remaining binding at 1 µM [2] was 97%. It also gave a remaining binding at 1 µM [3] of 100%, a remaining binding at 1 µM [4] of 59% and a remaining binding at 1 µM [5] of 0%. It also gave a remaining binding at 1 µM [6] of 100%, a remaining binding at 1 µM [7] of 92% and a remaining binding at 1 µM [8] of 13%. It also gave a remaining binding at 1 µM [9] of 58%.

CCNc1nc(Nc2ccc(C(=O)N3CCC(N4CCOCC4)CC3)cc2OC)nc2[nH]cc(C(F)(F)F)c12 [Example 104, (4-((4-(ethylamino)-5-(trifluoromethyl)-7H-pyrrolo[2,3-d]pyrimidine-2-yl)amino)-3-methoxyphenyl)(4-morpholinopiperidine-1-yl)methanone] showed an IC50 (recombinant LRRK2 kinase) of under 0.01 µM, a remaining binding at 1 µM [1] of 100% and a remaining binding at 1 µM [2] of 100%. For the same molecule, the remaining binding at 1 µM [3] was 86%, the remaining binding at 1 µM [4] was 73% and the remaining binding at 1 µM [5] was 0.95%. It also gave a remaining binding at 1 µM [6] of 81%, a remaining binding at 1 µM [7] of 100% and a remaining binding at 1 µM [8] of 0%. It also gave a remaining binding at 1 µM [9] of 90%.
